Reference: US12564590B2, “Combinations of menin inhibitors and CYP3A4 inhibitors and methods of use thereof” (Syndax Pharmaceuticals, Inc., priority 2020, dated 2026)

How the values were obtained:
[1] = system: cells harboring MLLr fusions; test: activity in cells harboring MLLr fusions; type: cell-based
[2] = target: T1, MLL1 binding pocket on menin (Homo sapiens, UniProt O00255); test: binding to the MLL1 binding pocket on menin
T1 sequence (O00255 1-610): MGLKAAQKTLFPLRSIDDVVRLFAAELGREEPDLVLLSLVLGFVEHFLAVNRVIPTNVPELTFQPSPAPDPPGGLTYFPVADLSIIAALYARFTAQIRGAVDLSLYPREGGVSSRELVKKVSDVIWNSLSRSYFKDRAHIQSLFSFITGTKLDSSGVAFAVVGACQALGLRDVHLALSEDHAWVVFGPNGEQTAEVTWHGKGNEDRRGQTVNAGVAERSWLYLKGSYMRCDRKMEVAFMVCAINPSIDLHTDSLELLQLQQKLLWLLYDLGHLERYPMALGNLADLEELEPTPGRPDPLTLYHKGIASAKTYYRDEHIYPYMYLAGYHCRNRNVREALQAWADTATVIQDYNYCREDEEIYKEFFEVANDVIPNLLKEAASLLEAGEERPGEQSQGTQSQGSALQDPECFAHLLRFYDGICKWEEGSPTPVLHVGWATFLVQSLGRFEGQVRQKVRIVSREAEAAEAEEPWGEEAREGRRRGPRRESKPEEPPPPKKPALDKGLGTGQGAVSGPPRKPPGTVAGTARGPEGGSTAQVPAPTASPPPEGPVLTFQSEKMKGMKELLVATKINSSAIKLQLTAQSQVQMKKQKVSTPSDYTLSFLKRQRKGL

[3] = system: leukemic xenograft models; test: leukemic xenograft / nonclinical survival models; type: in vivo; conditions: in combination with a CYP3A4 inhibitor; for survival benefit in nonclinical models: oral dosing
[4] = system: NPM1c mutant AML patient-derived xenograft models; conditions: orally active; cited from earlier work
NPM1c cells = conditions: leading to growth arrest, terminal differentiation and cell death; cited from earlier work

Row | binding affinity to the MLL1 binding pocket on menin [2] | Structure (SMILES) | activity across a range of cells harboring MLLr fusions [1] | activity in multiple leukemic xenograft models [3] | survival benefit in nonclinical models [3] | anti-leukemic activity [4] | effect on HOXA MEIS1 transcription program (NPM1c cells)
1 | high affinity | CC(C)N(C(=O)c1cc(F)ccc1Oc1cncnc1N1CC2(CCN(C[C@H]3CC[C@H](NS(C)(=O)=O)CC3)CC2)C1)C(C)C [Formula I, 5-fluoro-N,N-diisopropyl-2-((4-(7-(((1r,4r)-4-(methylsulfonamido)cyclohexyl)methyl)-2,7-diazaspiro[3.5]nonan-2-yl)pyrimidin-5-yl)oxy)benzamide] | displays activity | robust activity | profound survival benefit |  | 
2 | high affinity | CCN(C(=O)c1cc(F)ccc1Oc1cncnc1N1CC2(CCN(C[C@H]3CC[C@H](NS(=O)(=O)CC)CC3)CC2)C1)C(C)C [Formula II, N-ethyl-2-((4-(7-(((1r,4r)-4-(ethylsulfonamido)cyclohexyl)methyl)-2,7-diazaspiro[3.5]nonan-2-yl)pyrimidin-5-yl)oxy)-5-fluoro-N-isopropylbenzamide] | displays activity | robust activity | profound survival benefit |  | 
3 |  | CNc1nc(NC2CCN(Cc3ccc4c(cc(C#N)n4C[C@H](C)N4CCN(S(C)(=O)=O)CC4)c3C)CC2)c2cc(CC(F)(F)F)sc2n1 [KO-539] |  |  |  | robust anti-leukemic activity | 
4 |  | Cc1c(CN2CCC(Nc3ncnc4sc(CC(F)(F)F)cc34)CC2)ccc2c1cc(C#N)n2Cc1cn[nH]c1 [MI-503] |  |  |  |  | suppress the HOXA MEIS1 transcription program
